What was measured:
Format in all cases: cell-based, human
[1] = system: primary fibroblasts from RDEB patients (RDEB-FBs); assay: Collagen deposition analysis (Sircol assay); conditions: 96 h
Experimental: The amount of collagens deposited into the extracellular matrix (ECM) was measured by using the Sirius red staining-based Sircol assay (Biocolor, Carrickfergus, Northern Ireland-UK). Briefly, two RDEB-FB strains were seeded into 12-well plates (55.000 cells/well), and growth for two days until they reached about 80-90% confluence. Then, cells were treated for 96 h with PF-03084014 (5 μM), DAPT (20 μM) or the corresponding amount of vehicle DMSO in serum-free media. GSI stimulation was performed in the presence or in the absence of TGF-β1 (2 ng/mL) as inducer of collagen synthesis. In order to further improve collagen deposition, RDEB-FB cultures were daily supplemented with 50 μg/mL of L-ascorbic acid (Merck) and 100 μg/mL of dextran sulfate 500 kDa (Merck). ECM collagens were solubilized by scraping culture wells with a solution of 0.5 M acid acetic containing pepsin at 0.1 mg/mL (Pepsin […].4.23.1, product code: […], Merck) and incubated overnight at 4° C. in agitation. The day after, ECM lysates were neutralized with 100 μL of Acid Neutralizing Reagent (Biocolor), and concentrated by overnight incubation in ice-water mix, in the presence of 200 μL of Isolation & Concentration Reagent (Biocolor). Sample absorbance values were measured by BioTek Synergy H1 microplate reader (Agilent, Santa Clara, CA, USA) at 560 nm and analyzed through the GEN5TM software v. 3.04 (Agilent).

[2] = system: TGF-β1 secreted by RDEB-FBs; assay: TGF-β1 ELISA on conditioned media of RDEB fibroblasts; conditions: 20 μM, 48 h; for acid-activated TGF-β1 in conditioned media: three RDEB-FB strains, mean±SD
Experimental: Human TGF-β1 Quantikine ELISA Kit (R&D Systems, Minneapolis, MN, USA) was used to measure the amount of TGF-β1 (pg/mL) in serum-free conditioned media of three RDEB-FB strains, treated or not with PF-03084014 and DAPT at 1 or 20 μM for 48 h. DMSO-treated cells were used as controls. TGF-β1 Quantikine ELISA Kit was performed as per manufacturer's instructions. Samples were assayed in duplicate for each experimental condition. In order to detect both the latent precursor and the active form without latency-associated peptide cell supernatants were subjected to acid activation prior to be analyzed. Absorbance values were recorded at 455 nm with an Infinite F50 microplate reader (Tecan, Männedorf, Switzerland) and analyzed by employing the GraphPad Prism 8.2 version (GraphPad Software Inc., San Diego, CA, USA).

[3] = system: primary fibroblasts from RDEB patients (RDEB-FBs); assay: Collagen lattice contraction (CLC) assay; conditions: for cell contractility (collagen lattice contraction) / contractility (collagen lattice contraction): RDEB-FBs, 20 μM, 48 h; for contractility (collagen lattice contraction): presence of TGF-β1 2 ng/mL
Experimental: RDEB-FBs (5×10^5 cells) were mixed in a collagen buffer and seeded into 12-well plates as previously described. After gelation, fibroblast-populated collagen lattices were detached from the wells and left floating. RDEB-FBs were treated with 20 μM of DAPT and PF-03804014 in DMEM containing 0.1% BSA, in the presence or absence of TGF-β1 at 2 ng/mL, as contraction booster. JAG1-silenced RDEB-FBs were embedded in collagen lattices 24 h after siRNA transfection. In both cases, images were acquired with ChemiDoc™ XRS+ System (Bio-Rad, Hercules, CA, USA) at the detachment of collagen lattices from the wells (time 0, TO) and after 48 h. Gel areas were measured by ImageJ software and photos at TO were used as references.

[4] = system: primary fibroblasts from RDEB patients (RDEB-FBs); assay: MTT proliferation assay on RDEB fibroblasts; conditions: 20 μM
Experimental: Proliferation rate was assessed by 3-(4,5-dimethyl-2-thiazolyl)-2,5-diphenyl-2H-tetrazolium bromide (MTT) assay, following the manufacturer's protocol. In brief, three different strains of RDEB-FBs were seeded at the density of 4×10^3 cells into 96-well plates. The day after, RDEB-FBs growing in DMEM containing 10% FBS were treated with 20 μM DAPT or PF-03084014 for 24 h or 48 h. Cells treated with the vehicle DMSO were used as controls. At the selected time points, medium was replaced with MTT solution and plates were incubated in a dry incubator at 37° C. for 3 h. Thereafter, cells were lysed in DMSO to dissolve formazan crystals and absorbance values were recorded at 560 nm with an Infinite F50 microplate reader (Tecan, Mannedorf, Switzerland). Values recorded 24 h after cell seeding, before GSI stimulation (TO) were used as reference.

[5] = system: primary fibroblasts from RDEB patients (RDEB-FBs); assay: Type I collagen degradation assay; conditions: presence of TGF-β1, PF-03084014 5 μM, DAPT 20 μM
Experimental: The ability of RDEB-FBs to degrade a thin film of type I collagen (COL1) was assessed as previously described. Briefly, COL1 from calf hides (Symatese, Chaponost, France), was diluted at a concentration of 375 μg/ml in 13 mM hydrochloric acid. Diluted COL1 solution was rapidly mixed on ice with one quarter-volume of a neutralizing phosphate buffer (20 ml of 0.2 M NaH2PO4 pH 7.5, 20 ml 0.1 M NaOH, 4.15 ml 5 M NaCl) and gently dispensed into 24-well plates. COL1 gelation was obtained maintaining COL1-coated plates at 37° C. for 2 h. COL1 gels were dehydrated overnight in a laminar flow hood, washed with sterile water and PBS containing Penicillin/Streptomycin. Then, a droplet of complete medium containing 12.500 RDEB-FBs was gently poured in the center of the well, and cells were allowed to adhere in a humidified chamber for 3 h. […] At the end of the incubation period, RDEB-FBs were detached by trypsin/EDTA and counted to be sure to evaluate collagenolytic activity of the same number of cells per condition. The residual COL1 film was stained for 15 min with a solution of Coomassie Brilliant Blue R-250 Dye (Thermo Fisher Scientific), the excess of stain was removed with a destain solution (30% ethanol, 7.5% CH3COOH). Images were acquired with a 10× objective.

| Compound | collagen deposition into the ECM ([1]; 20 μM, with or without TGF-β1) | acid-activated TGF-β1 in conditioned media [2] [pg/mL] | cell contractility (collagen lattice contraction) ([3]; absence of TGF-β1) | contractility (collagen lattice contraction) [3] | cell proliferation (MTT) ([4]; 24 and 48 h) | reduction of pepsin-soluble collagens deposited into the ECM ([1]; 5 μM, absence or presence of TGF-β1, vs untreated) [%] | reduction of TGF-β1 released in culture media ([2]; vs cells treated with DMSO and DAPT) | contractile properties (collagen lattice contraction) in strain RDEB-FB1 ([3]; RDEB-FB1, 20 μM, absence of TGF-β1) | type I collagen degradation areas [5] | proliferation rate (MTT) ([4]; 48 h, vs untreated cells) |
| --- | --- | --- | --- | --- | --- | --- | --- | --- | --- | --- |
| C[C@H](NC(=O)Cc1cc(F)cc(F)c1)C(=O)N[C@H](C(=O)OC(C)(C)C)c1ccccc1 [DAPT, N—[N-(3,5-difluorophenacetyl)-L-alanyl]-S-phenylglycine t-butyl ester] | DAPT-mediated reduction of collagen deposition in each experimental condition, though the difference was moderate | 250.4 ± 97.3 | didn't exhibit significant variations | significant, although less conspicuous | didn't display variations in cell proliferation |  |  |  |  |  |
| CCC[C@H](N[C@H]1CCc2cc(F)cc(F)c2C1)C(=O)Nc1cn(C(C)(C)CNCC(C)(C)C)cn1 [PF-03084014, (S)-2-((S)-5,7-difluoro-1,2,3,4-tetrahydronaphthalen-3-ylamino)-N-(1-(2-methyl-1-(neopentylamino)propan-2-yl)-1H-imidazol-4-yl)pentanamide] |  | 99.6 ± 40.8 | modest but consistent in all RDEB-FB strains analyzed | marked reduction of contractility |  | 50 | up to 60% | striking inhibition of contractile properties | increased number and size of collagen degradation areas | statistically significant reduction of RDEB-FB proliferation rate |
